Assay results: patent EP0513240B1, “LIQUID HARD SURFACE DETERGENT COMPOSITIONS CONTAINING ZWITTERIONIC DETERGENT SURFACTANT AND MONOETHANOLAMINE AND/OR BETA-AMINOALKANOL” (THE PROCTER & GAMBLE COMPANY, priority 1990, dated 1991)
Read-outs that look alike come from different tables or passages of the source. Marks after values point to notes of the source that are not given here.

Assays:
[1] = Solubility of selected diols in 20°C water; type: physicochemical; conditions: determined via laboratory measurements (values marked *)
Procedure: A particularly preferred type of solvent for these hard surface cleaner compositions comprises diols having from 6 to 16 carbon atoms in their molecular structure. Preferred diol solvents have a solubility in water of from about 0.1 to about 20 g/100 g of water at 20°C.

[2] = in 20°C water; values from published literature; cited from earlier work

Solubility [1]	SMILES	Solubility [2]
1.0* g/100g H2O	CCCCCCC(O)CO (stereo not shown) [1,2-Octanediol]	–
12.0* g/100g H2O	CC(O)(CO)c1ccccc1 (stereo not shown) [2-Phenyl-1,2-propanediol]	–
12.0* g/100g H2O	OCC(O)c1ccccc1 (stereo not shown) [Phenyl-1,2-ethanediol]	–

The remaining lines, values behind:

SMILES	Solubility [1]	Solubility [2]
OCC1CCC(CO)CC1 (stereo not shown) [1,4-Cyclohexanedimethanol]	20.0* g/100g H2O	–
CC(C)C(O)C(C)(C)CO (stereo not shown) [2,2,4-Trimethyl-1,3-pentanediol]	–	1.9 g/100g H2O
CC(C)(O)CCC(C)(C)O [2,5-Dimethyl-2,5-hexanediol]	–	14.3 g/100g H2O
CCCC(O)C(CC)CO (stereo not shown) [2-Ethyl-1,3-hexanediol]	–	4.2 g/100g H2O
